According to US5506264A, “Zinc tranexamate compounds” (Zaidan Hojin Seisan Kaihatsu Kaguki Kenkyusho, priority 1992, dated 1996):
Counter-ions that a name gives are not always drawn.

What was measured:
Solubility in water = format: physicochemical
[1] = tested on: Stomach injury through water-immersion constraint stress; test: Anti-ulcer test (2): stomach injury through water-immersion constraint stress; format: in vivo, Male rats of Sprague-Dawley strain; conditions: 50 mg/kg oral, immediately before stress-loading (23° C., 8 hours), 8 animals, * p<0.05; for Ulcer coefficient (mm) mean ± S.E.: non-treated 52.8 ± 9.8
Method: Male rats of Sprague-Dawley strain (supplied by Charles-River Co., SPE) weighing 220 to 280 g were fasted for 24 hours and employed in the experiment, whereby the rats were allowed free access to water for the first 22 hours, with no water being given for the remaining 2 hours. The test compound was suspended in 0.5% aqueous carboxymethylcellulose solution and the suspension was given to the test animals at a dose of 1 ml/200 g body weight, with the solvent alone being applied as a control at the same dose. The rats were stress-loaded by soaking the animals placed in a stress cage of Univ. of Tokyo type up to the xiphoid in a water tank at 23° C. and they were taken out of the tank 8 hours later and sacrificed with ether. The stomachs were isolated and treated with formalin, and individual injuries formed in the glandular portion of the stomach were measured in length (mm), with the total sum per rat of the measured injury lengths being calculated. The test compound was given to the test animals orally immediately before the stress-loading.

[2] = tested on: Stomach injury with hydrochloric acid/ethanol; test: Anti-ulcer test (1): stomach injury with hydrochloric acid/ethanol; format: in vivo, Male rats of Sprague-Dawley strain; conditions: for Suppression % / Ulcer coefficient (mm) mean ± S.E.: 50 mg/kg oral, 1 hour before hydrochloric acid/ethanol, 8 animals, * p<0.05; for Ulcer coefficient (mm) mean ± S.E.: non-treated 78.4 ± 21.1
Method: Male rats of Sprague-Dawley strain (supplied by Charles-River Co., SPE) weighing 220 to 280 g were fasted for 24 hours and employed in the experiment, whereby the rats were allowed free access to water for the first 22 hours, with no water being given for the remaining 2 hours. The test compound was suspended in 0.5% aqueous carboxymethylcellulose solution and the suspension was given to the test animals at a dose of 1 ml/200 g body weight, with the solvent alone being applied as a control at the same dose. Rats were treated by oral administration of hydrochloric acid/ethanol (containing 0.15 mole hydrochloric acid solution in 80% ethanol) at a dose of 1 ml/200 g body weight and sacrificed with ether 1 hour later, and the stomachs and duodena were isolated, followed by removal of the contents from the duodena. After the cardiac orifices were ligated, 2% formalin solution was injected in 8 ml portion into the stomachs through the duodenum, and the pyloric sphincters were ligated, followed by immersion into the same solution for 10 min to perform slight fixation (hereinafter referred to as "formalin treatment"). The stomachs were incised along the greater curvature, and individual injuries (erosions) generated in the glandular portion of each stomach were measured in length (mm) under microscope for anatomy (10 fold magnification), with the total sum per rat of measured injury lengths being calculated. The test compound was given to the animals orally 1 hour before administration of hydrochloric acid/ethanol.

mice = test: Acute toxicity test, oral; conditions: 3 day observation
Excerpt: Male ddy strain mice (weighing 23 to 26 g) used in the experiment were divided into groups each consisting of 3 heads and treated by oral administration of the test compound suspended with powdered gum arabic, followed by observation for any abnormalities over a 3 day period to find the number of dead animals.

Row | Compound | amount of compound dissolving in 2 ml of water (Solubility in water) | Suppression % [1] | Ulcer coefficient (mm) mean ± S.E. [1] | Suppression % [2] | Ulcer coefficient (mm) mean ± S.E. [2] | effects in the anti-ulcer tests ([2]; conclusion in words from the test results) | suppressory activity in the anti-ulcer test, compared with control, tranexamic acid and cetraxate hydrochloride ([2]; summary in words of the anti-ulcer tests (Tables 1 and 2)) | Nd/No (No. of dead animals / total No. of experimental animals) (mice; 600 mg/kg oral) | Nd/No (No. of dead animals / total No. of experimental animals) (mice; 1,200 mg/kg oral) | mortality (mice; oral doses up to 1,200 mg/kg)
1 | L-malic acid salt of zinc tranexamate monohydrate | 1 g | – | – | – | – | – | – | – | – | –
2 | NC[C@H]1CC[C@H](C(=O)O)CC1 [Tranexamic acid, tranexamic acid] | – | 11.9% | 46.5 ± 8.4 mm | 10.1% | 70.5 ± 20.1 mm | did not produce any marked effects | – | – | – | –
3 | zinc tranexamate monohydrate | – | 57.8% | 22.3 ± 8.4 mm | 81.1% | 14.8 ± 4.5 mm | – | improved suppressory activity as compared with the control, or tranexamic acid and cetraxate hydrochloride | 0/3 | 0/3 | did not cause any animal to die
4 | NC[C@H]1CC[C@H](C(=O)Oc2ccc(CCC(=O)O)cc2)CC1 [Cetraxate hydrochloride] | – | 39.4% | 32.0 ± 8.4 mm | 40.9% | 46.3 ± 7.6 mm | – | – | – | – | –
